Patent publication US11674967B2, “Method of identifying potential inhibitors of APO TNFα trimers” (UCB BIOPHARMA SRL, priority 2015, dated 2023)

Key:
[1] = test system: TNFα-induced IL-8 production; experiment: TNFα-induced IL-8 production by human monocytes; type: cell-based; conditions: TNFα ~1 ng/ml, 18 hours
Description: Venous blood from healthy donors was collected by venupuncture into sodium/heparin containing tubes (BD Biosciences). Peripheral blood mononuclear cells (PBMC) were isolated by density gradient centrifugation with Ficoll Paque (Amersham Biosciences). Briefly, 10 mL of blood was diluted 1:1 (v/v) with RPMI 1640 (Gibco) and carefully layered onto 20 mL Ficoll Paque. Cells were spun down for 30 minutes (min) at 470 g, the PBMC collected, washed once in RPMI 1640 and any remaining contaminating erythrocytes lysed in erythrocyte lysis buffer (1 g/L KHCO3, 8.3 g/L NH4Cl, 0.0372 g/L EDTA). Isolation of monocytes from the PBMC was performed using CD14+ Magnetic MicroBeads (Miltenyi Biotec) according to the manufacturer's instructions. Briefly, PBMC were resuspended in Dulbecco's modified Eagle's medium containing 5% BSA (Sigma) and 2 mM EDTA (Sigma) at 1×10^7 cells/ml. […] of CD14 MicroBeads per 10^7 total cells were incubated for 15 min at room temperature. The magnetic separation was performed using a LS column (Miltenyi Biotec). […]
Human IL-8 was measured in the cell culture supernatants using enzyme-linked immunosorbent assay (ELISA) kits from R&D Systems Ltd. according to the manufacturer's instructions. […] Plates were read at a wavelength of 630 nm with correction at 470 nm.

TNFα = TNFα (Homo sapiens, UniProt P01375); experiment: Surface plasmon resonance kinetics of compound binding to immobilised TNFα
Sequence of TNFα (P01375 77-233 limits assumed): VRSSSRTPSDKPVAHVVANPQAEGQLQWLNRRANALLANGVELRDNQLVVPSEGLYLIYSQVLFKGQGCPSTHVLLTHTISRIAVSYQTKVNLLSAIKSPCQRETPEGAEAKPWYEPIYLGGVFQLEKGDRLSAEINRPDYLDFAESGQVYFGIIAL
Description: Surface plasmon resonance was used to measure the association rate, the dissociation rate and the affinity of the compounds of formulae (3) and (15) for TNFα (FIGS. 12A and B). For the purpose of this study a Biacore T100/T200 was used.
TNFα was immobilised at pH5 to a level of 5-8 KRU onto a CMS sensor in HBS-P buffer (10 mM HEPES pH 7.4, 0.15 M NaCl, 0.005% Surfactant P20, BIAcore, GE Healthcare). The TNFα was then equilibrated in HBS-P with 5% DMSO for at least 5 hours. The samples were diluted from 10 mM stocks into DMSO matched buffer and left to solubilise for at least 5 hours. The flow rate was […].
This assay was performed by adding 4 or 5 concentrations of compound starting from a highest concentration of 25 μM for compound of formula (3) and 1 μM for compound of formula (15) and then serially diluting this sample. Background subtraction binding curves were analysed using the BIAevaluation software following standard procedures. Binding, affinity and kinetic parameters were determined using Biacore software. The kinetic data were fitted using the levenberg marquardt algorithm.

[2] = test system: TNFα-induced NF-κB activation; experiment: HEK-Blue CD40L NF-κB reporter gene assay, TNFα stimulus; type: cell-based; conditions: TNFα 0.5 ng/mL
Description: (§1) Stimulation of HEK-293 cells by TNF-alpha leads to activation of the NF-kB pathway. The reporter cell line used to determine TNF alpha activity was purchased from Invivogen. HEK-Blue™ CD40L, is a stable transfectant expressing SEAP (secreted alkaline phosphatase) under the control of the IFN-beta minimal promoter fused to 5 NF-kB binding sites. Secretion of SEAP by these cells is stimulated in a concentration dependent manner by TNF-alpha (0.5 ng/ml), IL-1-beta (0.5 ng/ml) and an activating anti-human TNFR1 antibody (300 ng/ml).
Compounds were diluted from 10 mM DMSO stocks (final assay concentration 0.3%) to generate a 10 point 3 fold serial dilution curve (30,000 nM to 2 nM final concentration). They were mixed with stimulating ligand for 1 hour in a 384 well microtitre plate. […] SEAP activity was determined in the supernatant using the colorimetric substrate Quanti-Blue™ (Invivogen).
(§2) Percentage inhibitions for compound dilutions were calculated between a DMSO control and maximum inhibition (by excess control compound) and an IC50 calculated using xlfit (4 parameter logistic model) in Activity Base.
C87 was preincubated with TNFα for 1 hour prior to the addition to HEK-293 cells stably transfected with SEAP under the control of NFκB. […] The assay was incubated overnight before inhibition was measured compared to 100% blocking by a control compound. […]

IL-1β = experiment: HEK-Blue NF-κB reporter gene counterscreen, IL-1β stimulus; type: cell-based; conditions: IL-1β 0.5 ng/mL
Description: as §1
(§3) Compounds were diluted from 10 mM DMSO stocks (final assay concentration 0.3%) to generate a 10 point 3 fold serial dilution curve (30,000 nM to 2 nM final concentration). They were mixed with stimulating ligand for 1 hour in a 384 well microtitre plate. Freshly thawed and washed cells were added to the compound/stimulus mixture and further incubated for 18 hours. SEAP activity was determined in the supernatant using the colorimetric substrate Quanti-Blue™ (Invivogen).
as §2
(§4) The specific activity of the compound of formula (15) against the TNF-alpha response was compared to that seen with the counterscreens (IL-1beta and anti-human TNFR1 antibody).

TNF-R1 = experiment: HEK-Blue NF-κB reporter gene counterscreen, activating TNF-R1 antibody stimulus; type: cell-based, human; conditions: antibody 300 ng/mL
Description: as §1, §3, §2, §4

Structure (SMILES)	IC50 [1]	dissociation rate constant (koff) (TNFα)	kon (TNFα)	IC50 [2]	inhibition of activation of NF-κB by IL-1β (IL-1β)	inhibition of activation of NF-κB by activating TNF-R1 antibody (TNF-R1)
Cc1ccc(C)c(Cn2c(C(O)c3ccncc3)nc3ccccc32)c1 (stereo not drawn) [Compound 3]	454 nM	9.46 e^−5 s^−1	2.668 e^3 M^−1 s^−1	–	–	–
Cc1ccc(C)c(Cn2c(C(O)c3ccncc3)nc3ccc(-c4cnn(C)c4)cc32)c1 (stereo not drawn) [Compound 15]	–	–	–	113 nM	did not inhibit	did not inhibit
